Test system: human pancreatic cell lines PANC
Test: MTT assay of cancer cell viability, PANC cells
Format: cell-based
From the text: To evaluate potentials for developing a drug leading from the synthesized compounds, the MTT assay was used to measure cancer cell viability upon the drug treatment. Two cancer cell lines (PANC and U87) were selected, which are some of the representing solid tumor cell lines in the National Cancer Institute's 60 human tumor cell lines panel (see FIG. 1A).

Cc1cccc(C)c1N1C(=O)C2(C=CC(=O)N2c2ccc(CNC(=O)OC(C)(C)C)cc2)C2C(=O)c3ccccc3OC21 (centres unmarked) [Compound 6j, Tert-butyl (4-(1-(2,6-dimethylphenyl)-2,4,5′-trioxo-1,3a,4,9a-tetrahydro-2H-spiro[chromeno[2,3-b]pyrrole-3,2′-pyrrol]-1′(5′H)-yl)benzyl)carbamate]
anticancer activities (cancer cell viability, PANC): excellent anticancer activities | IC50 (human pancreatic cell lines PANC): 0.092 µM
